≈ marks a conversion by molar mass, not a printed value.
How the values were obtained:
Format in all cases: cell-based
[1] = test system: MCF-7 (A115) human breast adenocarcinoma; experiment: MTT cytotoxicity test, MCF-7; details: MCF7, 120 h, MCF-7 human breast adenocarcinoma, five days incubation
Description: (§1) A panel of mammalian cell lines was used to determine the cytotoxicity of the compounds following a previously published protocol. The assay was initially performed using the sensitive cell lines KB3.1 (human endocervical adenocarcinoma) and L929 (mouse fibroblasts). Active compounds were further tested using the cell lines MCF-7 (human breast adenocarcinoma), PC-3 (human prostate adenocarcinoma), SKOV-3 (ovarian carcinoma), A549 (human lung carcinoma), and A431 (human squamous cell carcinomas) (Table 6). The cell lines A549, KB 3.1, and L929 were cultured in DMEM (Gibco, provided by Thermo Fisher Scientific), PC-3 in F12-K (Gibco) and MC-7, and SKOV-3 and A431 in RPMI (Gibco). With the exception of A549, all cell lines were supplemented with 10% bovine serum (Gibco). All cell lines were cultured at 37 °C. The L929 and KB 3.1 cell lines were cultivated under an atmosphere of 10% (v/v) carbon dioxide. Cytotoxicity tests were then carried out using MTT (3-(4,5-dimethylthiazol-2-yl)-2,5-diphenyltetrazolium bromide) in 96-well microtiter plates. Serial dilutions of the compounds (60 µL aliquots, each with an initial concentration of 1 mg/mL) were added into 120 µL aliquots of cell suspension (50000 cells/mL) in the 96-well plates. These were incubated for five days, after which an MTT assay was performed. The absorbance was taken at 590 nm using an Elisa plate reader (Victor, Überlingen, Germany). The half-maximal inhibitory concentration (IC50), the concentration at which cell growth inhibition was 50% of the control, was calculated as described elsewhere.

[2] = test system: Actinobacter baumannii (DSM 30008); experiment: Serial dilution MIC assay, Actinobacter baumannii; details: serial dilution 67-0.5 µg/mL, overnight incubation, n.i. = no inhibition, read-out: MIC
Experimental: (§2) Serial dilution assays in 96-well microtiter plates were performed according to our standard protocol in order to determine the minimum inhibitory concentrations (MICs) of pure isolated compounds against different microorganisms. Essentially, aliquots of compounds 1–5 and 9 (20 µL), each with an initial concentration of 1 mg/mL, were diluted in MeOH together with the respective microorganisms to concentrations ranging between 67 µg/mL and 0.5 µg/mL in the 96-well plates, followed by overnight incubation. The MIC was then determined as the lowest concentration at which no growth of the test organism was observed. A broad spectrum of clinically approved test pathogens and sensitivity indicator strains were used in the assays (Table 4 and Table 5). Ciprofloxacin, oxytetracycline, kanamycin, and gentamycin were used as positive controls against bacterial pathogens, while nystatin was used as the positive control against fungi.

[3] = test system: Chromobacterium violaceum (DSM 30191); experiment: Serial dilution MIC assay, Chromobacterium violaceum; details: DSM30191, serial dilution 67-0.5 µg/mL, overnight incubation, n.i. = no inhibition, read-out: MIC
Experimental: as §2

[4] = test system: tested microorganisms (bacteria and fungi); experiment: Serial dilution MIC assays, whole panel of tested strains; details: range over most tested bacterial and fungal strains; read-out: minimum inhibitory concentrations (MICs) against most tested strains
Experimental: as §2

[5] = test system: other cell lines (MCF-7, A549, PC-3, SKOV-3, A431); experiment: MTT cytotoxicity test, other cell lines of the panel; details: range over the cell lines other than L929 and KB3.1 (Table 6)
Description: as §1, with “These were incubated for five days, after which an MTT assay was performed.” left out, “The half-maximal inhibitory concentration (IC50), the concentration at which cell growth inhibition was 50% of the control, was calculated as described elsewhere.” left out

[6] = test system: KB3.1 (ACC158) human endocervical adenocarcinoma; experiment: MTT cytotoxicity test, KB3.1; details: KB 3-1, 120 h, KB3.1 human endocervical adenocarcinoma, five days incubation, n.c. = no cytotoxicity, read-out: IC50
Description: as §1

[7] = test system: SKOV-3 (ovarian carcinoma); experiment: MTT cytotoxicity test, SKOV-3; details: Homo sapiens, SK-OV-3, 120 h, five days incubation
Description: as §1

[8] = test system: Candida albicans (DSM 1665); experiment: Serial dilution MIC assay, Candida albicans; details: DSM1665, serial dilution 67-0.5 µg/mL, overnight incubation, n.i. = no inhibition, read-out: MIC
Experimental: as §2

[9] = test system: Pichia anomala (DSM 6766); experiment: Serial dilution MIC assay, Pichia anomala; details: Hansenula anomala, DSM6766, serial dilution 67-0.5 µg/mL, overnight incubation, n.i. = no inhibition, read-out: MIC
Experimental: as §2

[10] = test system: A549 (ACC107) human lung carcinoma; experiment: MTT cytotoxicity test, A549; details: Homo sapiens, 120 h, five days incubation
Description: as §1

[11] = test system: Staphylococcus aureus (DSM 346); experiment: Serial dilution MIC assay, Staphylococcus aureus; details: DSM346, serial dilution 67-0.5 µg/mL, overnight incubation, n.i. = no inhibition, read-out: MIC
Experimental: as §2

[12] = test system: Mycolicibacterium smegmatis (ATCC 700084); experiment: Serial dilution MIC assay, Mycolicibacterium smegmatis; details: ATCC700084, serial dilution 67-0.5 µg/mL, overnight incubation, n.i. = no inhibition, read-out: MIC
Experimental: as §2

[13] = test system: Mucor hiemalis (DSM 2656); experiment: Serial dilution MIC assay, Mucor hiemalis; details: DSM2656, serial dilution 67-0.5 µg/mL, overnight incubation, n.i. = no inhibition, read-out: MIC
Experimental: as §2

[14] = test system: A431 (ACC91) human squamous cell carcinomas; experiment: MTT cytotoxicity test, A431; details: A-431, 120 h, five days incubation
Description: as §1

[15] = test system: Escherichia coli (DSM 1116); experiment: Serial dilution MIC assay, Escherichia coli; details: DSM1116, serial dilution 67-0.5 µg/mL, overnight incubation, n.i. = no inhibition, read-out: MIC
Experimental: as §2

[16] = test system: Rhodotorula glutinis (DSM 10134); experiment: Serial dilution MIC assay, Rhodotorula glutinis; details: DSM10134, serial dilution 67-0.5 µg/mL, overnight incubation, n.i. = no inhibition, read-out: MIC
Experimental: as §2

[17] = test system: PC-3 (ACC465) human prostate adenocarcinoma; experiment: MTT cytotoxicity test, PC-3; details: 120 h, PC-3 human prostate adenocarcinoma, five days incubation
Description: as §1

[18] = test system: L929 (ACC2) mouse fibroblasts; experiment: MTT cytotoxicity test, L929; details: 120 h, five days incubation, n.c. = no cytotoxicity, read-out: IC50
Description: as §1

[19] = test system: Schizosaccharomyces pombe (DSM 70572); experiment: Serial dilution MIC assay, Schizosaccharomyces pombe; details: DSM70572, serial dilution 67-0.5 µg/mL, overnight incubation, n.i. = no inhibition, read-out: MIC
Experimental: as §2

[20] = test system: Bacillus subtilis (DSM 10); experiment: Serial dilution MIC assay, Bacillus subtilis; details: DSM10, serial dilution 67-0.5 µg/mL, overnight incubation, n.i. = no inhibition, read-out: MIC
Experimental: as §2

[21] = test system: Pseudomonas aeruginosa (DSM PA14); experiment: Serial dilution MIC assay, Pseudomonas aeruginosa; details: serial dilution 67-0.5 µg/mL, overnight incubation, n.i. = no inhibition
Experimental: as §2

CC(C)C1=C2[C@H]3CC=C(C=O)[C@@H]4[C@H](O[C@@H]5OC[C@@H](O)C(=O)[C@@]54O)[C@]3(C)CC[C@@]2(C)CC1 [Compound 9, striatal D] was tested, and the IC50 [1] was 100 nM, the MIC [2] was 66.6 µg/mL (≈ 155 µM) and the MIC [3] was 16.6 µg/mL (≈ 38.6 µM). The MIC [4] was 1 to 66.6 µg/mL (≈ 2.32 to 155 µM), the IC50 [5] was 100 to 1000 nM and the IC50 [6] was 400 nM. It also gave an IC50 [7] of 100 nM, an MIC [8] of 33.3 µg/mL (≈ 77.3 µM) and an MIC [9] of 33.3 µg/mL (≈ 77.3 µM). The IC50 [10] was 100 nM, the MIC [11] was 2.1 µg/mL (≈ 4.88 µM) and the MIC [12] was 33.3 µg/mL (≈ 77.3 µM). For the same compound, the MIC [13] was 2.1 µg/mL (≈ 4.88 µM), the IC50 [14] was 1000 nM and the MIC [15] was 66.6 µg/mL (≈ 155 µM). The MIC [16] was 1 µg/mL (≈ 2.32 µM), the IC50 [17] was 400 nM and the IC50 [18] was 800 nM. For the same compound, the MIC [19] was 4.2 µg/mL (≈ 9.76 µM), the MIC [20] was 1 µg/mL (≈ 2.32 µM) and the MIC [21] was “n.i”.

Source: publication PMC9405216, “Antimicrobial and Cytotoxic Cyathane-Xylosides from Cultures of the Basidiomycete Dentipellis fragilis” (Antibiotics, 2022)
